Data published in patent US12435061B2 (priority 2020, dated 2025).
Where “and” joins values, the source holds several entries; their conditions need not be identical. Equal entries are not always repeated. Structures can show the parent of a compound that is named as a salt. Where two headings read alike, the source gives them in different places. Values belong to the compound of their own block, whether it stands above or below them.

Target: hTRPV3 (Homo sapiens (Human), UniProt Q8NET8)
Assay: Whole-cell patch clamp, hTRPV3 Phase 1 / Phase 2 currents
Format: cell-based
Method in brief: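 Currents are activated by 20 μM 2-APB or by perfusate at 28 °C or warmer, in Ringer's solution, and quantified at ±80 mV.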

[1] = Phase 1 current, human TRPV3, read-out: hTRPV3 (nM) Phase 1
[2] = Phase 1 current, inward, whole-cell patch clamp, read-out: hTRPV3 Patch P1 Inwd
[3] = Phase 1 current, read-out: hTRPV3 (nM) (Phase 1)
[4] = Phase 2 current, inward, whole-cell patch clamp, read-out: hTRPV3 Patch P2 Inwd
[5] = Phase 2 current, read-out: hTRPV3 (nM) (Phase 2)

Chain of hTRPV3 (Q8NET8 whole entry): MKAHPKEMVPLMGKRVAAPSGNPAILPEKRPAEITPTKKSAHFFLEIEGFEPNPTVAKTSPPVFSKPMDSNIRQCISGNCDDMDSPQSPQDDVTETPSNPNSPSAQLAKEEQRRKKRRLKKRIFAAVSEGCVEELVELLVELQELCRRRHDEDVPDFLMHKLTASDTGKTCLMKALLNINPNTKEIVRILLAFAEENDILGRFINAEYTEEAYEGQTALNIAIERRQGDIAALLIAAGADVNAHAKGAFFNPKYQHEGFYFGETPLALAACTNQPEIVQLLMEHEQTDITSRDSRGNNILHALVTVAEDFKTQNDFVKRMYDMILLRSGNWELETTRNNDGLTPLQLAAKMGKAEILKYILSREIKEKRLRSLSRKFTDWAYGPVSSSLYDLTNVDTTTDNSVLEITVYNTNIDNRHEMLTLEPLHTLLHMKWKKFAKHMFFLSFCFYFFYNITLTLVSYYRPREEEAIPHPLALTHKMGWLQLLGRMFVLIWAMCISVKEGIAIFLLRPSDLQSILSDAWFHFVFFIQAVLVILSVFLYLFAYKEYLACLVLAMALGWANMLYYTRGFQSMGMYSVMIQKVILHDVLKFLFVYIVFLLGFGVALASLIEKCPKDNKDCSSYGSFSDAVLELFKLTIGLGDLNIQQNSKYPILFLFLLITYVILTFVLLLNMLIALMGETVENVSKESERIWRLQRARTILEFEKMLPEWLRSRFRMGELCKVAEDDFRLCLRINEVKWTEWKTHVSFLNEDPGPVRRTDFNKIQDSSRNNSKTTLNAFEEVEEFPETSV

SMILES: CCc1ccccc1Oc1ccc(C2CC(=O)N(Cc3cccc(C)n3)C2)c(C(N)=O)c1 (stereo not shown) [Compound 2-98, 5-(2-ethylphenoxy)-2-(1-((6-methylpyridin-2-yl)methyl)-5-oxopyrrolidin-3-yl)benzamide]
- IC50 [1]: > 3200 nM
- IC50 [2]: > 1000 nM

SMILES: COc1ccnc(C(=O)N2CCC(c3ccc(-c4ccccc4C4CC4)cc3CO)C2)c1 (stereo not shown) [Compound 2-75, (3-(2′-cyclopropyl-3-(hydroxymethyl)biphenyl-4-yl)pyrrolidin-1-yl)(4-methoxypyridin-2-yl)methanone]
- IC50 [1]: 215 nM
- IC50 [2]: 100 to 1000 nM

SMILES: N#Cc1cc(Br)ccc1N1CC[C@H](Oc2ncccc2Cl)C1 [Compound 1-305]
- IC50 [2]: > 1000 nM

SMILES: COC(C)c1ccccc1Oc1ccc(N2CC[C@H](Oc3ccc(F)cn3)C2)c(CCO)c1 (stereo partly drawn) [Compound 1-347, 2-(2-((S)-3-(5-fluoropyridin-2-yloxy)pyrrolidin-1-yl)-5-(2-(1-methoxyethyl)phenoxy)phenyl)ethanol]
- IC50 [2]: 100 to 1000 nM
- IC50 [3]: 220 nM
- IC50 [4]: 100 to 1000 nM
- IC50 [5]: 198 nM

SMILES: FC(F)(F)c1ccc(O[C@H]2CCN(c3ccccc3OC3CCCC3)C2)nc1 [Compound 1-25, (S)-2-(1-(2-(cyclopentyloxy)phenyl)pyrrolidin-3-yloxy)-5-(trifluoromethyl)pyridine]
- IC50 [2]: > 1000 nM

SMILES: NC(=O)c1cc(-c2ccccn2)ccc1N1CC[C@H](Nc2ccc(C(F)(F)F)cn2)C1 [Compound 1-376, (S)-5-(pyridin-2-yl)-2-(3-(5-(trifluoromethyl)pyridin-2-ylamino)pyrrolidin-1-yl)benzamide]
- IC50 [2]: > 1000 nM
- IC50 [3]: > 3200 nM
- IC50 [4]: > 1000 nM
- IC50 [5]: > 3200 nM

SMILES: COc1ccccc1-c1ccc(N2CC[C@H](Oc3ncccc3F)C2)c(CO)n1 [Compound 1-213, (S)-(3-(3-(3-fluoropyridin-2-yloxy)pyrrolidin-1-yl)-6-(2-methoxyphenyl)pyridin-2-yl)methanol]
- IC50 [2]: > 1000 nM
- IC50 [3]: 2790 nM

SMILES: CN(C)Cc1ccccc1N1CC[C@H](Oc2ccc(C(F)(F)F)cn2)C1 [Compound 1-61, (S)—N,N-dimethyl-1-(2-(3-(5-(trifluoromethyl)pyridin-2-yloxy)pyrrolidin-1-yl)phenyl) methanamine hydrochloride]
- IC50 [2]: > 1000 nM

SMILES: COCc1ccc(C(=O)c2ccc(N3CC[C@H](Oc4ncccc4Cl)C3)c(CO)c2)cc1 [Compound 1-286]
- IC50 [2]: 100 to 1000 nM
- IC50 [3]: 607 nM

SMILES: COc1ccccc1Oc1ccc(N2CC[C@H](Oc3ncccc3F)C2)c(CO)c1 [Compound 1-346, (S)-(2-(3-(3-fluoropyridin-2-yloxy)pyrrolidin-1-yl)-5-(2-methoxyphenoxy)phenyl)methanol]
- IC50 [2]: 100 to 1000 nM
- IC50 [3]: 612 nM

SMILES: O=C(O)c1cc(-c2ccccc2)cnc1N1CC[C@@H](Oc2ccc(C(F)(F)F)cn2)C1 [Compound 1-91]
- hTRPV3 (nM) (Phase 1) (Phase 1 current): Agonist (Phase 1)

SMILES: O=C1C(Oc2ccc3ccccc3n2)CCN1c1ccccc1Cl (stereo not shown) [Compound 1-106, 1-(2-chlorophenyl)-3-(quinolin-2-yloxy)pyrrolidin-2-one]
- IC50 [2]: > 1000 nM
- IC50 [3]: > 3200 nM
- IC50 [4]: > 1000 nM
- IC50 [5]: > 3200 nM

SMILES: OCCCc1cc(-c2ccccc2)ccc1N1CC[C@H](Oc2ncccc2C(F)(F)F)C1 [Compound 1-170, (S)-3-(4-(3-(3-(trifluoromethyl)pyridin-2-yloxy)pyrrolidin-1-yl)biphenyl-3-yl)propan-1-ol]
- IC50 [4]: 100 to 1000 nM
- IC50 [5]: 551 nM

SMILES: O=C(c1ccncn1)N1CCC(c2ccc(-c3ccccc3C3CC3)cc2CO)C1 (stereo not shown) [Compound 2-110, (3-(2′-cyclopropyl-3-(hydroxymethyl)biphenyl-4-yl)pyrrolidin-1-yl)(pyrimidin-4-yl)methanone]
- IC50 [1]: 197 nM
- IC50 [2]: 100 to 1000 nM

SMILES: OCCc1cc(C(O)c2cccc(Cl)c2)ccc1N1CC[C@H](Oc2ncccc2Cl)C1 (stereo partly drawn) [Compound 1-329, 2-(5-((3-chlorophenyl)(hydroxy)methyl)-2-((S)-3-(3-chloropyridin-2-yloxy)pyrrolidin-1-yl)phenyl)ethanol]
- IC50 [2]: > 1000 nM
- IC50 [3]: 3100 nM

SMILES: NC(=O)c1ccc(-c2ccccc2)cc1N1CC[C@H](Oc2ccc(C(F)(F)F)cn2)C1 [Compound 1-63, (S)-3-(3-(5-(trifluoromethyl)pyridin-2-yloxy)pyrrolidin-1-yl)biphenyl-4-carboxamide]
- IC50 [2]: > 1000 nM
- IC50 [4]: > 1000 nM

SMILES: CCOC(=O)c1nc(-c2ccccc2)sc1N1CC[C@H](Oc2ccc(C(F)(F)F)cn2)C1 [Compound 1-206, (S)-ethyl 2-phenyl-5-(3-(5-(trifluoromethyl)pyridin-2-yloxy)pyrrolidin-1-yl)thiazole-4-carboxylate]
- IC50 [2]: > 1000 nM
- IC50 [3]: 2670 nM

SMILES: OCc1cc(Oc2ccc(Cl)c(Cl)c2)ccc1N1CC[C@H](Oc2ccccn2)C1 [Compound 1-344]
- IC50 [2]: 10 to 100 nM
- IC50 [3]: 65.3 nM

SMILES: NC(=O)c1cc(C2=NCCN2)ccc1N1CC[C@@H](Oc2ccc(C(F)(F)F)cn2)C1 [Compound 1-100, (R)-5-(4,5-dihydro-1H-imidazol-2-yl)-2-(3-(5-(trifluoromethyl)pyridin-2-yloxy)pyrrolidin-1-yl)benzamide]
- IC50 (hTRPV3 Patch P1 Inwd (nM)): > 1000 nM
- IC50 (hTRPV3 Patch P2 Inwd (nM)): > 1000 nM
- IC50 (read-out: hTRPV3 (nM) (Phase 1)): > 3200 nM
- IC50 (read-out: hTRPV3 (nM) (Phase 2)): > 3200 nM

SMILES: NC(=O)c1cc(-c2ccccn2)ccc1N1CC[C@@H](Oc2ccccn2)C1 [Compound 1-88, (R)-5-(pyridin-2-yl)-2-(3-(pyridin-2-yloxy)pyrrolidin-1-yl)benzamide]
- IC50 [2]: > 1000 nM
- IC50 [3]: > 3200 nM
- IC50 [4]: > 1000 nM
- IC50 [5]: > 3200 nM

SMILES: O=C(c1ncccn1)N1CCC(c2ccc(-c3ccccc3C3CC3)cc2CO)C1 (stereo not shown) [Compound 2-122]
- IC50 [1]: 202 nM

SMILES: O=C(c1ccc(N2CC[C@H](Nc3ccc(F)cn3)C2)c(CCO)c1)c1ccccc1Cl [Compound 1-389, (S)-(2-chlorophenyl)(4-(3-(5-fluoropyridin-2-ylamino)pyrrolidin-1-yl)-3-(2-hydroxyethyl)phenyl)methanone]
- IC50 [2]: > 1000 nM
- IC50 [3]: > 3200 nM

SMILES: Cc1ccccc1-c1ccc(N2CC[C@H](Oc3ncccc3F)C2)c(CO)n1 [Compound 1-216, (S)-(3-(3-(3-fluoropyridin-2-yloxy)pyrrolidin-1-yl)-6-o-tolylpyridin-2-yl)methanol]
- IC50 [2]: > 1000 nM
- IC50 [3]: 1160 nM

SMILES: O=C(c1ccc(N2CC[C@H](Oc3ncccc3Cl)C2)c(CO)c1)c1ccccc1Cl [Compound 1-263, (S)-(2-chlorophenyl)(4-(3-(3-chloropyridin-2-yloxy)pyrrolidin-1-yl)-3-(hydroxymethyl)phenyl)methanone]
- IC50 [2]: 100 to 1000 nM
- IC50 [3]: 444 nM

SMILES: CC(O)c1cc(F)ccc1-c1ccc(C2CCN(C(=O)c3ccc(Cl)cn3)C2)c(CO)c1 (stereo not shown) [Compound 2-71, (5-chloropyridin-2-yl)(3-(4′-fluoro-2′-(1-hydroxyethyl)-3-(hydroxymethyl)biphenyl-4-yl)pyrrolidin-1-yl)methanone]
- IC50 [1]: 860 nM
- IC50 [2]: 100 to 1000 nM
- IC50 (Phase 2 current, human TRPV3, read-out: hTRPV3 (nM) Phase 2): 572 nM
- IC50 [4]: 100 to 1000 nM

SMILES: CCc1ccccc1Oc1ccc(C2CCN(C(=O)c3ccc(Cl)cn3)C2)c(C(N)=O)c1 (stereo not shown) [Compound 2-39, 2-(1-(5-chloropicolinoyl)pyrrolidin-3-yl)-5-(2-ethylphenoxy)benzamide]
- IC50 [1]: 681 nM
- IC50 [2]: 100 to 1000 nM

SMILES: O=C(c1ccc(F)cc1)c1ccc(N2CC[C@H](Oc3ncccc3Cl)C2)c(CCO)c1 [Compound 1-315, (S)-(4-(3-(3-chloropyridin-2-yloxy)pyrrolidin-1-yl)-3-(2-hydroxyethyl)phenyl)(4-fluorophenyl)methanone]
- IC50 [2]: > 1000 nM
- IC50 [3]: 1260 nM

SMILES: OCc1cc(-c2ccccc2)ccc1N1CC[C@H](Oc2ncccc2Cl)C1 [Compound 1-126, (S)-(4-(3-(3-chloropyridin-2-yloxy)pyrrolidin-1-yl)biphenyl-3-yl)methanol]
- IC50 [4]: 100 to 1000 nM
- IC50 [5]: 369 nM

SMILES: NC(=O)c1ccc(O[C@H]2CCN(c3ccc(-c4ccccc4)cc3CO)C2)nc1 [Compound 1-144, (S)-6-(1-(3-(hydroxymethyl)biphenyl-4-yl)pyrrolidin-3-yloxy)nicotinamide]
- IC50 [2]: > 1000 nM
- IC50 [3]: 1280 nM
- IC50 [4]: > 1000 nM
- IC50 [5]: 4220 nM

SMILES: CC(C)NC(=O)c1ccccc1N1CC[C@@H](Oc2ccc(C(F)(F)F)cn2)C1 [Compound 1-49, (R)—N-isopropyl-2-(3-(5-(trifluoromethyl)pyridin-2-yloxy)pyrrolidin-1-yl)benzamide]
- IC50 [2]: > 1000 nM

SMILES: N#Cc1ccccc1N1CC[C@H](Oc2ccc(C(F)(F)F)cn2)C1 [Compound 1-11, (S)-2-(3-(5-(trifluoromethyl)pyridin-2-yloxy)pyrrolidin-1-yl)benzonitrile]
- IC50 [2]: > 1000 nM

SMILES: COc1ccc(Oc2ccc(N3CC[C@H](Oc4ccccn4)C3)c(CO)c2)cc1 [Compound 1-302]
- IC50 [2]: 100 to 1000 nM
- IC50 [3]: 282 nM

SMILES: CC(=O)NCc1cc(-c2ccccc2Cl)ccc1N1CC[C@H](Oc2ccc(C(F)(F)F)cn2)C1 [Compound 1-127, (S)—N-((2′-chloro-4-(3-(5-(trifluoromethyl)pyridin-2-yloxy)pyrrolidin-1-yl)biphenyl-3-yl)methyl)acetamide]
- IC50 [4]: > 1000 nM
- IC50 [5]: 1140 nM

- IC50 [2]: > 1000 nM
- IC50 [3]: > 1000 nM
- IC50 [4]: > 1000 nM
- IC50 [5]: > 1000 nM
SMILES: O=C1C(Oc2ccc3ccccc3n2)CCN1c1cccc2ccccc12 (stereo not shown) [Compound 1-101]

SMILES: Nc1cc(-c2ccccc2)ccc1N1CC[C@@H](Oc2ccc(C(F)(F)F)cn2)C1 [Compound 1-93, (R)-4-(3-(5-(trifluoromethyl)pyridin-2-yloxy)pyrrolidin-1-yl)biphenyl-3-amine]
- hTRPV3 (nM) (Phase 2) (Phase 2 current): Incomplete Block
- IC50 (hTRPV3 (nM) (Phase 2), Phase 2 current): 494 nM and < 320 nM
